In patent US20210205238A1, “STABILIZED INJECTABLE PHARMACEUTICAL COMPOSITION OF L-EPINEPHRINE” (MERCK PATENT GMBH, priority 2017, published 2021):
Where a name gives a salt, the structure may show the parent alone.

Experiments:
[1] = sulfonic acid derivative formed by reaction of epinephrine with sodium bisulfite; cited from earlier work
[2] = senior formulations 1.1 mg/mL, E:S 0.34, pH 3.9, 60° C., 28 days; vs epinephrine base
[3] = HPIC for determination of sodium metabisulfite as sulfite in stored formulations; format: physicochemical; settings: after 28 days at 60° C., senior formulation 1.1 mg/mL
Protocol: Epinephrine formulations were diluted 1:100 (formulations with 1.67 mg/mL Na2S2O5), 1:50 (formulations with 0.95 mg/mL and 0.48 mg/mL Na2S2O5) and 1:25 (formulation with 0.16 mg/mL Na2S2O5) in water containing 0.37% formaldehyde. Chromatographic separation was conducted on a Dionex Ion chromatograph ICS3000. 50 μl sample were applied on a HPIC column (AS4aSC, 4 mm×250 mm Thermo Scientific) using a guard column (AG4aSC, 4 mm×50 mm Thermo Scientific). Chromatographic separation was conducted in Eluent A (1.3 mM sodium hydrogen carbonate and 1.4 mM sodium carbonate in water) at 30° C. over 20 min at a flow rate of 2 mL/min. Conductivity detection with suppressor technology was used at a cell temperature of 35° C.

For `CNCC(c1ccc(O)c(O)c1)S(=O)(=O)O` (stereo not shown) [ESA, epinephrine sulfonic acid], the biological activity [1] is given as “biologically inactive”.
With `CNC[C@H](O)c1ccc(O)c(O)c1` [epinephrine tartrate] the D-enantiomer formation [2] was “significantly reduced”.
With `O=S([O-])S(=O)(=O)[O-].[Na+].[Na+]` [sodium metabisulfite] the “sodium metabisulfite starting content degraded” value ([3]; at E:S=1.2) was > 70% and the “sodium metabisulfite starting content degraded” value ([3]; at E:S=3) was > 90%.
